Measured values reported in patent publication US20210145768A1, “MODULATING IMMUNE RESPONSE VIA TARGETING OF OLFACTORY RECEPTOR ACTIVITY” (La Jolla Institute for Allergy and Immunology, priority 2018, published 2021).

Key:
Olfr2 [1] = target: T1, Olfr2 (Mus musculus, UniProt Q9QWU6); experiment: Intracellular TNF staining in vascular macrophages and blood monocytes (flow cytometry); assay type: cell-based; parameters: Olfr2 expression was confirmed at the protein level on F4/80^+ vascular macrophages; from tissue; host or cells: explanted whole aortas, digested aortic cell suspensions (F4/80+ vascular macrophages) and blood monocytes of Apoe-/- C57BL/6J mice; living Apoe-/- mice for the in vivo study; settings: octanal
T1 sequence (Q9QWU6 1-327): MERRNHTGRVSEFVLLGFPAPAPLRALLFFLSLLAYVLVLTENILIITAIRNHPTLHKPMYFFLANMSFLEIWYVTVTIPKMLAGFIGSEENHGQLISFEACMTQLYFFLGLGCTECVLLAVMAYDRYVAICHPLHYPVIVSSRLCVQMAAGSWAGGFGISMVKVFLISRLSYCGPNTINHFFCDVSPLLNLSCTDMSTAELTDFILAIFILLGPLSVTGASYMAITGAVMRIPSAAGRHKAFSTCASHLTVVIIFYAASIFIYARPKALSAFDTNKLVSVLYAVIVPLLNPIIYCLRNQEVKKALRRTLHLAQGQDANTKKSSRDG
Description: To assess the functional properties of Olfr2 in monocytes, cells were enriched form Apoe−/− mice blood by the negative selection. Purified monocytes were then incubated as described above. TNF expression (TNF-PE) was evaluate by intracellular staining protocol by flow cytometry. Classical and non-classical monocytes were divided as previously described (Live, CD115+, LyC6+, and LyC6− respectively). […] Data are presented as means±SEM. *p<0.05, **p<0.01, ***p<0.005, ****p<0.001. p calculated by One-Way ANOVA test, Tukey's multiple comparisons test.
Whole aortas and mouse blood leukocytes were incubated in culture medium with Oct, (10 μM), LPS, (500 ng/mL) alone or combined (LPS+Oct) for 12h at 37° C. and 5% CO2. The protein transport inhibitor cocktail 1× (eBioscience) was added for whole 12h in the whole aorta samples and for the last 6 hours in the mouse blood leukocyte samples. […]
Cells were then washed, fixed, permeabilized applying the Intracellular Fixation and Permeabilization Buffer Set (eBioscience), and stained with mouse anti-TNF-PE (eBioscience). Samples were analyzed with LSR-II (BD Biosciences). Data was acquired with FACSDiva software (BD Biosciences) and analyzed with FlowJo software (Treestar Inc).

Olfr2 [2] = target: T1, Olfr2; settings: Olfr2 binding of medium-chain aliphatic aldehydes; cited from earlier work

## CCCCCCCC=O [octanal]
Olfr2 [1]
  TNF expression in Ly6C+ and Ly6C− blood monocytes: boosted
Olfr2 [2]
  EC50: ~10 µM
